Results on one compound are retold here after ChEMBL document CHEMBL1129817, “Novel water-soluble analogues retaining potent antitumor activity of RA-VII, a cyclic hexapeptide from Rubia plants” (Bioorg Med Chem Lett, 1997).

Common to all, as to type: functional, Mus musculus
Assay [1] has as its system B16. Nature of the assay: Compound was evaluated for percent tumor volume against B16 melanoma in mice (T) at 1.6 mg/kg intravenous administration after 11 days ot that of control (C).
Assay [2] has as its system B16. Nature of the assay: Compound was evaluated for percent tumor volume against B16 melanoma in mice (T) at 1.6 mg/kg intravenous administration after 13 days ot that of control (C).
In assay [3] the test system is B16. Nature of the assay: Compound was evaluated for percent tumor volume against B16 melanoma in mice (T) at 1.6 mg/kg intravenous administration after 8 days ot that of control (C).
Assay [4] deals with B16. In words: Compound was evaluated for percent tumor volume against B16 melanoma in mice (T) at 3.13 mg/kg intravenous administration after 11 days ot that of control (C).
Assay [5] has as its system B16. Nature of the assay: Compound was evaluated for percent tumor volume against B16 melanoma in mice (T) at 3.13 mg/kg intravenous administration after 13 days ot that of control (C).
For assay [6], the system named is B16. Nature of the assay: Compound was evaluated for percent tumor volume against B16 melanoma in mice (T) at 3.13 mg/kg intravenous administration after 8 days ot that of control (C).
In assay [7] the test system is Colon 26. In words: Compound was evaluated for percent tumor volume against colon 26 cells in mice (T) at a dose of 1.6 mg/kg intravenous administration after 10 days ot that of control (C).
Assay [8] concerns Colon 26. Nature of the assay: Compound was evaluated for percent tumor volume against colon 26 cells in mice (T) at a dose of 1.6 mg/kg intravenous administration after 12 days ot that of control (C).
The subject of assay [9] is Colon 26. Nature of the assay: Compound was evaluated for percent tumor volume against colon 26 cells in mice (T) at a dose of 1.6 mg/kg intravenous administration after 8 days ot that of control (C).
Assay [10] relates to Colon 26. Nature of the assay: Compound was evaluated for percent tumor volume against colon 26 cells in mice (T) at a dose of 6.25 mg/kg intravenous administration after 12 days ot that of control (C).
Assay [11] deals with Colon 26. In words: Compound was evaluated for percent tumor volume against colon 26 cells in mice (T) at a dose of 6.25 mg/kg intravenous administration after 8 days ot that of control (C).
Assay [12] relates to Colon 26. In words: Compound was evaluated for percent tumor volume against colon 26 cells in mice (T) at a dose of 3.13 mg/kg intravenous administration after 10 days ot that of control (C).
Assay [13] has as its system Colon 26. Nature of the assay: Compound was evaluated for percent tumor volume against colon 26 cells in mice (T) at a dose of 3.13 mg/kg intravenous administration after 12 days ot that of control (C).
Assay [14] deals with Colon 26. Nature of the assay: Compound was evaluated for percent tumor volume against colon 26 cells in mice (T) at a dose of 3.13 mg/kg intravenous administration after 8 days ot that of control (C).
In assay [15] the test system is Colon 26. Nature of the assay: Compound was evaluated for percent tumor volume against colon 26 cells in mice (T) at a dose of 6.25 mg/kg intravenous administration after 10 days ot that of control (C).
Assay [16] has as its system P388. In words: Percentage of the median survival time of P388 leukemic mice (T) at intraperitoneal administration of 0.4 mg/kg dose to that of controls (C).
The test system of assay [17] is P388. Nature of the assay: Percentage of the median survival time of P388 leukemic mice (T) at intraperitoneal administration of 0.8 mg/kg dose to that of controls (C).
Assay [18] has as its system P388. In words: Percentage of the median survival time of P388 leukemic mice (T) at intraperitoneal administration of 1.6 mg/kg dose to that of controls (C).
For assay [19], the system named is P388. Nature of the assay: Percentage of the median survival time of P388 leukemic mice (T) at intraperitoneal administration of 3.13 mg/kg dose to that of controls (C).

Structures are written as SMILES.

With `COc1ccc(C[C@H]2C(=O)N[C@@H](C)C(=O)N(C)[C@H]3Cc4cccc(c4)Oc4cc(ccc4OC)C[C@@H](C(=O)N[C@H](C)C(=O)N[C@@H](C)C(=O)N2C)N(C)C3=O)cc1`, the T/C was 62.4% in the assay with B16 [1]; 85.1% in the assay with B16 [2]; 65.8% in the assay on B16 [3]; 55.5% in the assay with B16 [4]; 49.9% with B16 [5]; 60% with B16 [6]. Further, the T/C in the assay with Colon 26 [7] worked out at 72.8%; in the assay with Colon 26 [8], 88%; in the assay with Colon 26 [9], 55.8%; in the assay on Colon 26 [10], 78%; in the assay with Colon 26 [11], 49%; in the assay on Colon 26 [12], 60.9%. In addition, the T/C worked out at 85.6% in the assay with Colon 26 [13]; 48% with Colon 26 [14]; 50.3% in the assay with Colon 26 [15]; 144% with P388 [16]; 144% with P388 [17]; 152% with P388 [18]. The T/C with P388 [19] is 163%.
